Data taken from patent US11820773B2, “Tricyclic compounds” (ALIGOS THERAPEUTICS, INC., priority 2020, dated 2023).
pEC50: −log10 of the molar value.

These compounds were tested on HBV (assay: HBV-DNA antiviral assay using HepG2.117 cells (intracellular HBV DNA by qPCR)). Conditions: HBV DNA inhibition, 3 days incubation, 2% DMSO.
Type: cell-based, genotype D HBV
Method in brief: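 HepG2.117 cells (stable genotype D HBV, Tet-off) seeded without doxycycline, treated next day with 9-point 4-fold dilutions in 2% DMSO for 3 days at 37° C. Intracellular HBV DNA quantified by qPCR against a standard curve; viability by CellTiter-Glo ATP. EC50, EC90, CC50 from variable-slope dose-response fits versus DMSO control.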
Cn1cnnc1-c1ccc(-n2c(=O)c3c(n4ncc(Cc5ccccc5)c24)CN(C(=O)c2ccc(Br)c(Cl)c2)CC3)cc1 [Compound 9, 5-benzyl-12-(4-bromo-3-chloro-benzoyl)-7-[4-(4-methyl-1,2,4-triazol-3-yl)phenyl]-2,3,7,12-tetrazatricyclo[7.4.0.0^2,6]trideca-1(9),3,5-trien-8-one] was tested, and the pEC50 was > 7.30.

Same assay, conditions: Hepatitis B virus, 72 h, HBV DNA inhibition, 3 days incubation, 2% DMSO
C[C@@H]1Cc2c(n3ncc(Cc4ccccc4)c3n(-c3ccc4c(c3)nnn4C)c2=O)CN1C(=O)c1ccc(Br)c(C(F)(F)F)c1 (stereo in doubt) [Compound 72a, rac-(11R)-5-benzyl-12-[4-bromo-3-(trifluoromethyl)benzoyl]-11-methyl-7-(1-methylbenzotriazol-5-yl)-2,3,7,12-tetrazatricyclo[7.4.0.0^2,6]trideca-1(9),3,5-trien-8-one] was tested, and the pEC50 was > 7.30.
CNC(=O)c1cnc(-n2c(=O)c3c(n4ncc(Cc5ccccc5)c24)CN(C(=O)c2ccc(Br)c(C(F)(F)F)c2)[C@@H](C)C3)cn1 (stereo in doubt) [Compound 73b, N-methyl-5-[rac-(11S)-5-benzyl-12-[4-bromo-3-(trifluoromethyl)benzoyl]-11-methyl-8-oxo-2,3,7,12-tetrazatricyclo[7.4.0.0^2,6]trideca-1(9),3,5-trien-7-yl]pyrazine-2-carboxamide] was tested, and the pEC50 was > 7.30.
Work on CC(C)Cc1cnn2c3c(c(=O)n(-c4ccc5c(c4)nnn5C)c12)C[C@H](C)N(C(=O)c1ccc(Br)c(C(F)(F)F)c1)C3 (stereo in doubt) [Compound 95b, rac-(11S)-12-[4-bromo-3-(trifluoromethyl)benzoyl]-5-isobutyl-11-methyl-7-(1-methylbenzotriazol-5-yl)-2,3,7,12-tetrazatricyclo[7.4.0.0^2,6]trideca-1(9),3,5-trien-8-one] yielded a pEC50 of 6.30 to 7.30.
CNC(=O)c1cnc(-n2c(=O)c3c(n4ncc(CC(C)C)c24)CN(C(=O)c2ccc(Br)c(C(F)(F)F)c2)[C@@H](C)C3)nc1 (stereo in doubt) [Compound 85b, N-methyl-2-[rac-(11S)-12-[4-bromo-3-(trifluoromethyl)benzoyl]-5-isobutyl-11-methyl-8-oxo-2,3,7,12-tetrazatricyclo[7.4.0.0^2,6]trideca-1(9),3,5-trien-7-yl]pyrimidine-5-carboxamide] was tested, and the pEC50 was > 7.30.
In the case of Cc1nn[nH]c1-c1ccc(-n2c(=O)c3c(n4ncc(CC5CCC5)c24)CN(C(=O)c2ccc(Br)c(C(F)(F)F)c2)[C@H](C)C3)cc1 (stereo in doubt) [Compound 76a, rac-(11R)-12-[4-bromo-3-(trifluoromethyl)benzoyl]-5-(cyclobutylmethyl)-11-methyl-7-[4-(4-methyl-1H-triazol-5-yl)phenyl]-2,3,7,12-tetrazatricyclo[7.4.0.0^2,6]trideca-1(9),3,5-trien-8-one], the pEC50 was > 7.30.
CNC(=O)c1cnc(-n2c(=O)c3c(n4ncc(Cc5ccccc5)c24)CN(C(=O)c2ccc(Br)c(C(F)(F)F)c2)[C@H](C)C3)nc1 (stereo in doubt) [Compound 69a, N-methyl-2-[rac-(11R)-5-benzyl-12-[4-bromo-3-(trifluoromethyl)benzoyl]-11-methyl-8-oxo-2,3,7,12-tetrazatricyclo[7.4.0.0^2,6]trideca-1(9),3,5-trien-7-yl]pyrimidine-5-carboxamide] was tested, and the pEC50 was > 7.30.
Cc1nn[nH]c1-c1ccc(-n2c(=O)c3c(n4ncc(CC5CCC5)c24)CN(C(=O)c2ccc(Br)c(C(F)(F)F)c2)[C@@H](C)C3)cc1 (stereo in doubt) [Compound 76b, rac-(11S)-12-[4-bromo-3-(trifluoromethyl)benzoyl]-5-(cyclobutylmethyl)-11-methyl-7-[4-(4-methyl-1H-triazol-5-yl)phenyl]-2,3,7,12-tetrazatricyclo[7.4.0.0^2,6]trideca-1(9),3,5-trien-8-one] showed a pEC50 of 6.30 to 7.30.
CC(C)Cc1cnn2c3c(c(=O)n(-c4ccc(-c5n[nH]c(=O)n5C)cc4)c12)C[C@@H](C)N(C(=O)c1ccc(Br)c(C(F)(F)F)c1)C3 (stereo in doubt) [Compound 81a, rac-(11R)-12-[4-bromo-3-(trifluoromethyl)benzoyl]-5-isobutyl-11-methyl-7-[4-(4-methyl-5-oxo-1H-1,2,4-triazol-3-yl)phenyl]-2,3,7,12-tetrazatricyclo[7.4.0.0^2,6]trideca-1(9),3,5-trien-8-one] was tested, and the pEC50 was > 7.30.
In the case of CC[C@@H]1Cc2c(n3ncc(Cc4ccccc4)c3n(-c3ccc4c(NC)n[nH]c4c3)c2=O)CN1C(=O)c1ccc(Br)c(C(F)(F)F)c1 (stereo in doubt) [Compound 84a, rac-(11R)-5-benzyl-12-[4-bromo-3-(trifluoromethyl)benzoyl]-11-ethyl-7-[3-(methylamino)-1H-indazol-6-yl]-2,3,7,12-tetrazatricyclo[7.4.0.0^2,6]trideca-1(9),3,5-trien-8-one], the pEC50 was > 7.30.
CNC(=O)c1ccc(-n2c(=O)c3c(n4ncc(Cc5ccccc5)c24)CN(C(=O)c2ccc(Br)c(C(F)(F)F)c2)[C@@H](C)C3)cc1 (stereo in doubt) [Compound 38b, N-methyl-4-[rac-(11S)-5-benzyl-12-[4-bromo-3-(trifluoromethyl)benzoyl]-11-methyl-8-oxo-2,3,7,12-tetrazatricyclo[7.4.0.0^2,6]trideca-1(9),3,5-trien-7-yl]benzamide] was tested, and the pEC50 was > 7.30.
For C[C@H]1Cc2c(n3ncc(Cc4ccccc4)c3n(-c3ccc4c(c3)nnn4C)c2=O)CN1C(=O)c1ccc(Br)c(C(F)(F)F)c1 (stereo in doubt) [Compound 72b, rac-(11S)-5-benzyl-12-[4-bromo-3-(trifluoromethyl)benzoyl]-11-methyl-7-(1-methylbenzotriazol-5-yl)-2,3,7,12-tetrazatricyclo[7.4.0.0^2,6]trideca-1(9),3,5-trien-8-one], the pEC50 was > 7.30.
For C[C@@H]1Cc2c(n3ncc(CC4CCC4)c3n(-c3ccc(-c4nncn4C)cc3)c2=O)CN1C(=O)c1ccc(Br)c(C(F)(F)F)c1 (stereo in doubt) [Compound 45a, rac-(11R)-12-[4-bromo-3-(trifluoromethyl)benzoyl]-5-(cyclobutylmethyl)-11-methyl-7-[4-(4-methyl-1,2,4-triazol-3-yl)phenyl]-2,3,7,12-tetrazatricyclo[7.4.0.0^2,6]trideca-1(9),3,5-trien-8-one], the pEC50 was > 7.30.
For C[C@@H]1Cc2c(n3ncc(Cc4ccccc4)c3n(-c3ccc(-c4noc(=O)n4C)cc3)c2=O)CN1C(=O)c1ccc(Br)c(C(F)(F)F)c1 (stereo in doubt) [Compound 41a, 4-methyl-3-[4-[rac-(11R)-5-benzyl-12-[4-bromo-3-(trifluoromethyl)benzoyl]-11-methyl-8-oxo-2,3,7,12-tetrazatricyclo[7.4.0.0^2,6]trideca-1(9),3,5-trien-7-yl]phenyl]-1,2,4-oxadiazol-5-one], the pEC50 was > 7.30.
